From ChEMBL document CHEMBL1154238, “Identification of specific small molecule ligands for stem loop 3 ribonucleic acid of the packaging signal Psi of human immunodeficiency virus-1” (J Med Chem, 2009)
The source made the active and inactive calls. The rule behind the calls is not given here.

Columns and labels:
[1] = target: Nucleic Acid; assay: Binding affinity to unlabeled 20mer stem loop 3 HIV1 RNA of packaging element psi by titration method; type: nucleic-acid assay, Human immunodeficiency virus 1
[2] = Solubility in DMSO; type: physicochemical
[3] = Solubility in water; type: physicochemical; settings: buffer
[4] = target: Nucleic Acid; assay: Binding affinity to fluorescein-labeled 20mer stem loop 3 HIV1 RNA of packaging element psi by titration method; type: nucleic-acid assay, Human immunodeficiency virus 1
[5] = target: Nucleic Acid; assay: Binding affinity to fluorescein-labeled HIV1 duplex RNA of packaging element psi by titration method; type: nucleic-acid assay, Human immunodeficiency virus 1
[6] = target: Nucleic Acid; assay: Binding affinity to fluorescein-labeled stem loop 2 HIV1 RNA of packaging element psi by titration method; type: nucleic-acid assay, Human immunodeficiency virus 1
[7] = tested on: Nucleic Acid; assay: Selectivity ratio of Kd for fluorescein-labeled HIV1 duplex RNA of packaging element psi to Kd for fluorescein-labeled 14mer stem loop 3 HIV1 RNA of packaging element psi; type: nucleic-acid assay; settings: Human immunodeficiency virus 1
[8] = target: Nucleic Acid; assay: Binding affinity to weaker binding site of unlabeled stem loop 2 HIV1 RNA of packaging element psi by isothermal titration calorimetry; type: nucleic-acid assay, Human immunodeficiency virus 1
[9] = tested on: Nucleic Acid; assay: Stabilization of stem loop 3 HIV1 RNA of packaging element psi assessed as melting temperature by UV spectroscopy; type: nucleic-acid assay; settings: Human immunodeficiency virus 1
[10] = tested on: Nucleic Acid; assay: Stabilization of stem loop 3 HIV1 RNA of packaging element psi assessed as protection against RNase 1-mediated cleavage at 500 uM by footprinting method; type: nucleic-acid assay; settings: Human immunodeficiency virus 1
[11] = target: Nucleic Acid; assay: Binding affinity to fluorescein-labeled HIV1 single-stranded RNA of packaging element psi by titration method; type: nucleic-acid assay, Human immunodeficiency virus 1
[12] = tested on: Nucleic Acid; assay: Selectivity ratio of Kd for fluorescein-labeled stem loop 2 HIV1 RNA of packaging element psi to Kd for fluorescein-labeled 14mer stem loop 3 HIV1 RNA of packaging element psi; type: nucleic-acid assay; settings: Human immunodeficiency virus 1
[13] = target: Nucleic Acid; assay: Binding affinity to fluorescein-labeled stem loop 4 HIV1 RNA of packaging element psi by titration method; type: nucleic-acid assay, Human immunodeficiency virus 1
[14] = tested on: Nucleic Acid; assay: Selectivity ratio of Kd for fluorescein-labeled stem loop 4 HIV1 RNA of packaging element psi to Kd for fluorescein-labeled 14mer stem loop 3 HIV1 RNA of packaging element psi; type: nucleic-acid assay; settings: Human immunodeficiency virus 1
[15] = tested on: Nucleic Acid; assay: Selectivity ratio of Kd for fluorescein-labeled HIV1 single-stranded RNA of packaging element psi to Kd for fluorescein-labeled 14mer stem loop 3 HIV1 RNA of packaging element psi; type: nucleic-acid assay; settings: Human immunodeficiency virus 1
[16] = tested on: Nucleic Acid; assay: Binding affinity to stem loop 3 HIV1 RNA of packaging element psi assessed as RNA intercalation at 55 to 110 uM by CD spectroscopy; type: nucleic-acid assay; settings: Human immunodeficiency virus 1
[17] = target: Nucleic Acid; assay: Binding affinity to strong binding site of unlabeled stem loop 2 HIV1 RNA of packaging element psi by isothermal titration calorimetry; type: nucleic-acid assay, Human immunodeficiency virus 1
[18] = target: Nucleic Acid; assay: Binding affinity to fluorescein-labeled stem loop 3 HIV1 duplex RNA of packaging element psi by titration method; type: nucleic-acid assay, Human immunodeficiency virus 1
[19] = target: Nucleic Acid; assay: Binding affinity to fluorescein-labeled 14mer stem loop 3 HIV1 RNA of packaging element psi by titration method; type: nucleic-acid assay, Human immunodeficiency virus 1
[20] = target: Nucleic Acid; assay: Binding affinity to 2-aminopurine-labeled stem loop 4 HIV1 RNA of packaging element psi by titration method; type: nucleic-acid assay, Human immunodeficiency virus 1
[21] = tested on: Nucleic Acid; assay: Binding affinity to stem loop 3 HIV1 RNA of packaging element psi assessed as RNA intercalation at 55 to 220 uM by CD spectroscopy; type: nucleic-acid assay; settings: Human immunodeficiency virus 1
[22] = tested on: Nucleic Acid; assay: Binding affinity to fluorescein-labeled stem loop 3 HIV1 RNA of packaging element psi after 72 hrs by mass spectroscopy; type: nucleic-acid assay; settings: Human immunodeficiency virus 1
[23] = tested on: Nucleic Acid; assay: Selectivity ratio of Kd for fluorescein-labeled HIV1 duplex RNA of packaging element psi to Kd for fluorescein-labeled 20mer stem loop 3 HIV1 RNA of packaging element psi; type: nucleic-acid assay; settings: Human immunodeficiency virus 1
[24] = tested on: Nucleic Acid; assay: Selectivity ratio of Kd for fluorescein-labeled HIV1 single-stranded RNA of packaging element psi to Kd for fluorescein-labeled 20mer stem loop 3 HIV1 RNA of packaging element psi; type: nucleic-acid assay; settings: Human immunodeficiency virus 1
[25] = tested on: Nucleic Acid; assay: Binding affinity to fluorescein-labeled stem loop 3 HIV1 RNA of packaging element psi by titration method; type: nucleic-acid assay; settings: Human immunodeficiency virus 1
[26] = tested on: Nucleic Acid; assay: Selectivity ratio of Kd for HIV1 single-stranded RNA to Kd for 20mer stem loop 3 HIV1 RNA; type: nucleic-acid assay; settings: Human immunodeficiency virus 1

For `CN(C)c1ncnc2c1ncn2CCn1cnc2ncnc(N(C)C)c21`, the Kd [1] was 32 µM.
In the case of `Cc1ccn2c(CCc3nnc4cc(C)ccn34)nnc2c1`, the solubility [2] is reported as “Insoluble” and the solubility [3] is reported as “Insoluble”.
`C[N+]1(C)CCc2cc(O)c(O)cc2C1Cc1ccc(O)c(O)c1` (stereo unspecified) gave a Kd [4] of 135 µM.
`Cc1cc(N2CCN(C)CC2)n2nc(-c3ccc(Cl)cc3)nc2n1` showed a Kd [5] of 69 µM, a Kd ([6]; read-out: Kd) of 46 µM and a Selectivity ratio [7] of 5. The Kd [8] was 2250 µM, the Tm [9] was 78.2 °C and the Activity [10] was “Active”. For the same molecule, the Kd [11] was 276 µM, the Selectivity ratio [12] was 4 and the Kd [13] was 70 µM. For the same molecule, the Selectivity ratio [14] was 7, the Selectivity ratio [15] was 25 and the Activity [16] was “inactive”. For the same molecule, the Kd [17] was 15 µM, the Kd ([18]; read-out: Kd) was 58 µM and the Kd [19] was 11 µM.
With `COC1=C(C)C(=O)c2c(c(COC(N)=O)c3n2CC2C3N2C)C1=O` (stereo unspecified) the Kd [5] was 345 µM, the Kd [6] was “Not Active” and the Selectivity ratio [7] was 3.5. For the same molecule, the Kd [8] was 11000 µM, the Kd [20] was 79 µM and the Activity [21] was “Active”. For the same molecule, the Tm [9] was 79.2 °C, the Activity [22] was “Active” and the Activity [10] was “Active”. For the same molecule, the Kd [11] was > 4900 µM, the Selectivity ratio [15] was 50 and the Kd [17] was 110 µM. For the same molecule, the Kd [19] was 98 µM.
Work on `C[N+](C)(C)CCN[N+]1(C)CCCc2ccccc21` (stereo unspecified) yielded a Kd [5] of 6.1 µM, a Kd [4] of 1.5 µM and a Selectivity ratio [23] of 4. The Kd [11] was 7.8 µM, the Selectivity ratio [24] was 4 and the Kd ([18]; read-out: Kd) was 14 µM.
In the case of `Cn1c(N)nc2c(nc(OCc3ccccc3)n2[C@@H]2O[C@H](CO)[C@@H](O)[C@@H]2O)c1=O`, the Activity [25] is reported as “inactive”.
Molecule `COc1ccc2nc3cc(Cl)ccc3c(Nc3ccc(O)c(CN4CCN(C)CC4)c3)c2c1` has a Kd [5] of 0.87 µM, a Kd [4] of 0.67 µM and a Selectivity ratio [26] of 4.4. It also gave a Kd [11] of 3 µM.
Work on `CCOC(=O)c1c2c(n3ccccc13)C(=O)c1ccccc1C2=O` yielded a Kd [5] of 3 µM, a Kd [4] of 1.4 µM and a Selectivity ratio [23] of 2. The Kd [11] was 2.3 µM, the Selectivity ratio [24] was 2 and the Kd [18] was “Not Active”.
Work on `C[N+]1(C)C2CC(OC(=O)C(CO)c3ccccc3)CC1C1OC12` (stereo unspecified) yielded a Kd [19] of 157 µM.
Molecule `O=C1Oc2ccccc2C(=O)/C1=C/N1C(=O)N/C(=C\c2ccccc2O)C1=O` has a Kd [4] of 163 µM.
